Calls of active or inactive are those of the source.
Columns and labels:
Steroidogenic factor 1 = Steroidogenic factor 1 (Homo sapiens, UniProt Q13285); test: Counterscreen for inverse agonists of the liver receptor homolog-1 (LRH-1; NR5A2): Luminescence-based cell-based high throughput dose response assay to identify inverse agonists of the Steroidogenic Factor 1 Nuclear Receptor (SF1; NR5A1).; format: functional
[1] = target: Nuclear receptor subfamily 5 group A member 2 (Homo sapiens, UniProt O00482); format: functional, cell-based;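 also: HEK293T cells transfected with LRH-1 and a StAR promoter luciferase reporter; potency for inhibitors that lower LRH-1 driven reporter light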
[2] = StAR promoter reporter inhibition counter-screen, dose response, counter-screen for LRH-1 inverse agonist project, cell-based, luminescence, luciferase reporter (AID 651969); format: functional
HEK293 [3] = test: HEK cell cytotoxicity by LDH release, dose response, cytotoxicity control for IDE activator project, fluorescence, HEK cells (AID 588440); format: functional, cell-based; conditions: Homo sapiens;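 also: cytotoxicity by LDH release measuring loss of membrane integrity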
Insulin-degrading enzyme [4] = target: T1, Insulin-degrading enzyme (Homo sapiens, UniProt P14735); test: activators of endogenous IDE in HEK cells, dose response, cell-based, fluorescence polarization (AID 588439); format: functional
T1 sequence (P14735 whole entry): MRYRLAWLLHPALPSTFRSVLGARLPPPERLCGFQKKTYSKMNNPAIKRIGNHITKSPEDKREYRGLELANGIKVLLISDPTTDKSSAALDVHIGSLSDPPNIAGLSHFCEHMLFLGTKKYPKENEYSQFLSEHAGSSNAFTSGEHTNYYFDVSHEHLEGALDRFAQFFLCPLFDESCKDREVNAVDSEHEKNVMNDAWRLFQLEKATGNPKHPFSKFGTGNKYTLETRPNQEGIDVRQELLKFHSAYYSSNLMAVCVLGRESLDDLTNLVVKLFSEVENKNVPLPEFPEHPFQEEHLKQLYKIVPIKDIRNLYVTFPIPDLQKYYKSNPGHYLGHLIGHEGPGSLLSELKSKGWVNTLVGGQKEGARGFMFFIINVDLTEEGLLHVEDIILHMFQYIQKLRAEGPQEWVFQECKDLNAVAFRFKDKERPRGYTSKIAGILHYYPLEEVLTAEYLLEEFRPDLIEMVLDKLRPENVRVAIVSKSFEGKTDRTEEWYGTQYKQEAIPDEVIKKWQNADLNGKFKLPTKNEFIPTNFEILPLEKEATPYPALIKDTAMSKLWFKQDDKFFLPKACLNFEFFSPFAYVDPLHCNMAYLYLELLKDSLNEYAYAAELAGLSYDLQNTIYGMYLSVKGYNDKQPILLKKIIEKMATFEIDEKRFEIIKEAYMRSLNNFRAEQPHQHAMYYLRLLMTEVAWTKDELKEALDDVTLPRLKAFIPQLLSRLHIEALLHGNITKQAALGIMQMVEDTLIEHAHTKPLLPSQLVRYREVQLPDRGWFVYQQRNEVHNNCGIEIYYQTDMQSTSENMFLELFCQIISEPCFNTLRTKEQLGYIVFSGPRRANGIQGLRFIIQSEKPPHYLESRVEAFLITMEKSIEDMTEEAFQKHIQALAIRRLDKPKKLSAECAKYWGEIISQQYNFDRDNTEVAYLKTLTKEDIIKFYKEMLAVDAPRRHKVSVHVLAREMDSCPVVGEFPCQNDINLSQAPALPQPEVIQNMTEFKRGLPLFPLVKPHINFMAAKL

HEK293 [5] = test: optical interference in Abeta FP readout, dose response, artefact control for IDE activator project, biochemical, fluorescence polarization (AID 588442); format: functional, cell-based; conditions: Homo sapiens
Insulin-degrading enzyme [6] = target: T1, Insulin-degrading enzyme; test: activators of recombinant IDE enzyme, dose response, counter-screen for IDE activator project, biochemical, fluorescence polarization (AID 588681)
CHO-K1 = test: (§1) Counterscreen for antagonists of the orexin 1 receptor (OX1R; HCRTR1): Homogeneous time resolved fluorescence (HTRF)-based cell-based dose response assay to identify antagonists of the parental CHO-K1 cell line. [Related pubchem assays (depositor defined):AID434989, AID435008, AID463079, AID485270, AID492963, AID492964, AID492965, AID493232, AID504699, AID504701]; format: functional; conditions: Cricetulus griseus
Orexin receptor type 2 [7] = target: T2, Orexin receptor type 2 (Homo sapiens, UniProt O43614); test: Counterscreen assay for antagonists of the orexin 1 receptor (OX1R; HCRTR1): Fluorescence-based cell-based dose response assay for antagonists of the orexin 2 receptor (OX2R; HCRTR2), run by assay provider.; format: functional
T2 sequence (O43614 whole entry): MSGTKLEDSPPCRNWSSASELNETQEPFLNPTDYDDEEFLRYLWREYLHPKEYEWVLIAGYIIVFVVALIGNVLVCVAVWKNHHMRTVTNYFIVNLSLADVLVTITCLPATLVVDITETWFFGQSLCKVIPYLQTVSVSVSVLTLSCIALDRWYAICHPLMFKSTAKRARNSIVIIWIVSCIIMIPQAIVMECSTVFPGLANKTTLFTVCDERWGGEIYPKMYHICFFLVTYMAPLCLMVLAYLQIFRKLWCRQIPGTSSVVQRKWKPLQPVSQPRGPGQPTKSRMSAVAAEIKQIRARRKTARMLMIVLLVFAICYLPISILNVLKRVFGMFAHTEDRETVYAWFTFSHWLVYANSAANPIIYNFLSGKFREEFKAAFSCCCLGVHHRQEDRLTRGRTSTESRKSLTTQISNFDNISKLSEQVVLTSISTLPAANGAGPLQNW

[8] = as §1, with “Fluorescence-based” for “Homogeneous time resolved fluorescence (HTRF)-based”, “cell-based high throughput” for “cell-based”, “CHO” for “CHO-K1”; format: functional
[9] = ADAM10 inhibitors, peptide cleavage, dose response, biochemical, QFRET (AID 743254);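 also: ADAM10 enzyme with the DM2 quenched FRET peptide as substrate; EDANS fluorescence gain as the protease cuts the substrate; inhibitor potency against ADAM10 proteolytic activity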
[10] = target: T3, Orexin/Hypocretin receptor type 1 (Homo sapiens, UniProt O43613); test: (§2) Fluorescence-based cell-based high throughput dose response assay for antagonists of the orexin 1 receptor (OX1R; HCRTR1). [Related pubchem assays (depositor defined):AID434989, AID435008, AID463079, AID485270, AID492963, AID492964, AID492965, AID493232, AID504717, AID504718]; format: functional
T3 sequence (O43613 whole entry): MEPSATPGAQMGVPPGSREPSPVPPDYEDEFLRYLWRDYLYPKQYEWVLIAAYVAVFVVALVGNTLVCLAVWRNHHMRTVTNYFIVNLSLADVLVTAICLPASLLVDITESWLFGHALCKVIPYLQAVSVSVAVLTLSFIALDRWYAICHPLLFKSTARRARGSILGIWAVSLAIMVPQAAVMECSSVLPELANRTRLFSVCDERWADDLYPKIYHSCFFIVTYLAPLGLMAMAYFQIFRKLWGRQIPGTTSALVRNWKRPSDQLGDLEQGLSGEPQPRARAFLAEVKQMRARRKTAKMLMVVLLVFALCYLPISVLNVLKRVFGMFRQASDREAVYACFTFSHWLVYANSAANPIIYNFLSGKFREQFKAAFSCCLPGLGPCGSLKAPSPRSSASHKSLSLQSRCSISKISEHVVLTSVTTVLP

[11] = target: Peroxisome proliferator-activated receptor gamma/Nuclear receptor coactivator 3 (Homo sapiens, UniProt P37231); format: functional;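 also: agonist potency for raising coactivator recruitment to the receptor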
[12] = target: T3, Orexin/Hypocretin receptor type 1; test: as §2, with “Homogeneous Time Resolved Fluorescence (HTRF)-based” for “Fluorescence-based”; format: functional
[13] = target: Peroxisome proliferator-activated receptor gamma/Nuclear receptor coactivator 1 (Homo sapiens, UniProt P37231); format: functional;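 also: agonist potency as compounds enhance coactivator SRC-1 recruitment to PPARgamma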
Orexin receptor type 2 [14] = target: T2, Orexin receptor type 2; test: Counterscreen assay for antagonists of the orexin 1 receptor (OX1R; HCRTR1): Homogeneous Time Resolved Fluorescence (HTRF)-based cell-based dose response assay for antagonists of the orexin 2 receptor (OX2R; HCRTR2), run by assay provider.; format: functional
[15] = target: T4, Probable nicotinate-nucleotide adenylyltransferase (Staphylococcus aureus (strain N315), UniProt P65502); format: functional, Staphylococcus aureus subsp. aureus N315;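 as to IC50 Mean: confirmatory dose-response retesting of NadD inhibitor hits first found in an ultra-high-throughput screen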
[16] = target: T4, Probable nicotinate-nucleotide adenylyltransferase; format: functional, Staphylococcus aureus subsp. aureus N315; conditions: read-out: IC50_Mean
[17] = target: Disintegrin and metalloproteinase domain-containing protein 17 (Homo sapiens, UniProt P78536); test: ADAM17 protease inhibitors, dose response, counter-screen for ADAM10 exosite inhibitor project, biochemical, quenched FRET substrate (AID 743253)
[18] = target: Peroxisome proliferator-activated receptor gamma/Nuclear receptor coactivator 2 (Homo sapiens, UniProt P37231); format: functional;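 also: agonist potency for raising coactivator recruitment to the receptor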
Beta-lactamase [19] = target: Beta-lactamase (Salmonella choleraesuis (strain SC-B67), UniProt Q5J463)
Beta Lactamase = Beta Lactamase (Pseudomonas aeruginosa, UniProt Q932Y6);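 also: confirmatory high-throughput screen measuring VIM-2 metallo-beta-lactamase inhibition by epi-absorbance in dose response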
Beta-lactamase [20] = target: Beta-lactamase (Pseudomonas aeruginosa, UniProt Q79MP6);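 also: biochemical dose-response test of metallo-beta-lactamase enzyme inhibition, read out by epi-absorbance; purified recombinant IMP-1 metallo-beta-lactamase with nitrocefin as substrate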
[21] = target: Aryl hydrocarbon receptor (Homo sapiens, UniProt P35869); conditions: Potency;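 also: confirmatory quantitative high-throughput screen measuring activation of the AhR signaling pathway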
[22] = AlphaScreen signal interference compounds, dose response, artefact control for ARNT-TACC3 interaction inhibitor project, biochemical, luminescence, cherry-pick (AID 651705); format: functional;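 also: AlphaScreen bead proximity signal that flags compounds interfering with the detection technology; potency reflects signal decrease which marks the compound as an assay artifact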
[23] = target: DNA repair and recombination protein RAD54-like (Homo sapiens, UniProt Q92698); test: inhibitors of human RAD54 branch migration, confirmation, biochemical, fluorescence, cherry-picked samples, dose series (AID 651657); format: functional
[24] = target: DNA repair protein RAD52 homolog (Homo sapiens, UniProt P43351); format: functional, biochemical
[25] = target: FAD-linked sulfhydryl oxidase ALR (Homo sapiens, UniProt P55789); test: inhibitors of human ALR sulfhydryl oxidase, dose response, biochemical, H2O2 detection, luminescence, cherry-pick (AID 493248)
[26] = control 3'UTR Renilla luciferase suppression, dose response, counter-screen for Shn3 inhibitor project, cell-based, Clone20-Shn3RL, cherry-picked (AID 624133); format: functional
Protein Wnt-3a = Protein Wnt-3a (Mus musculus, UniProt P27467); test: Wnt3a-driven reporter signaling inhibition, dose response, selectivity assay for Gli-SUFU antagonist project, Wnt-LIGHT cells, luminescence (AID 651570); format: functional; conditions: read-out: IC50_Mean;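 also: Wnt-LIGHT reporter cells stimulated with conditioned medium from Wnt3a-producing cells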
[27] = Shn3 3'UTR reporter inhibitors, dose response, cell-based, Clone20 osteoblasts, firefly luciferase, cherry-picked (AID 624132); format: functional;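 also: firefly luciferase luminescence from reporter carrying the Shn3 3'UTR in osteoblasts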
[28] = target: Neurotensin receptor type 1 (Homo sapiens, UniProt P30989); format: functional;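 also: Image-based confirmatory dose-response assay measuring agonist activity at NTR1; NTR1-expressing U2OS osteosarcoma cells imaged for beta-arrestin GFP spot formation; agonist potency where compounds increase beta-arrestin recruitment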
[29] = Luminescence Cell-Based Dose Retest to Confirm Inhibitors of Cancer Stem Cells. [Related pubchem assays (depositor defined):AID2717, AID2721]; format: functional; conditions: Homo sapiens
[30] = HepG2 cell cytotoxicity, dose response, cytotoxicity control for Shn3 inhibitor project, CellTiter-Glo, cherry-picked (AID 624134); format: functional, cell-based
[31] = target: T5, Mitochondrial peptide methionine sulfoxide reductase (Bos taurus, UniProt P54149); format: functional;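 also: absorbance read-out, biochemical high-throughput dose-response screen for MsrA inhibitors, confirmatory; recombinant bovine MsrA coupled to E. coli TrxB with NADPH and selenocystamine; potency is for inhibitors of MsrA activity on DMSO substrate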
T5 sequence (P54149 whole entry): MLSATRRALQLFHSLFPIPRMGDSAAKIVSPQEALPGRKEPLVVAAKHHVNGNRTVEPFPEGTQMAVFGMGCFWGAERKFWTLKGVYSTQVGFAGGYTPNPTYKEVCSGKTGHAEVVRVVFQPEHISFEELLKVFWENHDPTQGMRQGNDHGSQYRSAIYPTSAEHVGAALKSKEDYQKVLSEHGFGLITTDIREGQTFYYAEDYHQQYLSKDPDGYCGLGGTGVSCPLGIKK

T4 sequence (P65502 whole entry): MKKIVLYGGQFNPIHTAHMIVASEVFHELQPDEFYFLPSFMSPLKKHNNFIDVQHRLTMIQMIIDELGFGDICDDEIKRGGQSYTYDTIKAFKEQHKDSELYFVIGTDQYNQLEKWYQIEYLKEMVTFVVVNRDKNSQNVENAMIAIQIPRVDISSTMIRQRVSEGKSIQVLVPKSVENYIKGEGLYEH
Sequence of Nuclear receptor subfamily 5 group A member 2 (O00482 whole entry): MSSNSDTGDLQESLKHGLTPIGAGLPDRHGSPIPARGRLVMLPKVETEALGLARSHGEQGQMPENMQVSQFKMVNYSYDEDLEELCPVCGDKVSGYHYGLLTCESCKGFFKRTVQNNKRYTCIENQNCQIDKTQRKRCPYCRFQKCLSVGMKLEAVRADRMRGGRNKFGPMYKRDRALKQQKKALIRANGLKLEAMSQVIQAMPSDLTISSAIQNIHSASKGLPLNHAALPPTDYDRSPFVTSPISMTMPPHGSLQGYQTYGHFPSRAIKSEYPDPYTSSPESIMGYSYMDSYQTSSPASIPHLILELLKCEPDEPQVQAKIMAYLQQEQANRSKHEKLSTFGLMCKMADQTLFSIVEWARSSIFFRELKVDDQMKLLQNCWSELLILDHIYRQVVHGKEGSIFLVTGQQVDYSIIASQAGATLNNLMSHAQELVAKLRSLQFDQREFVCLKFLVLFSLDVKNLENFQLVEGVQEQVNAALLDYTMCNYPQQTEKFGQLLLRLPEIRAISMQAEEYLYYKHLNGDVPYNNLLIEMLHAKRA
Sequence of DNA repair and recombination protein RAD54-like (Q92698 whole entry): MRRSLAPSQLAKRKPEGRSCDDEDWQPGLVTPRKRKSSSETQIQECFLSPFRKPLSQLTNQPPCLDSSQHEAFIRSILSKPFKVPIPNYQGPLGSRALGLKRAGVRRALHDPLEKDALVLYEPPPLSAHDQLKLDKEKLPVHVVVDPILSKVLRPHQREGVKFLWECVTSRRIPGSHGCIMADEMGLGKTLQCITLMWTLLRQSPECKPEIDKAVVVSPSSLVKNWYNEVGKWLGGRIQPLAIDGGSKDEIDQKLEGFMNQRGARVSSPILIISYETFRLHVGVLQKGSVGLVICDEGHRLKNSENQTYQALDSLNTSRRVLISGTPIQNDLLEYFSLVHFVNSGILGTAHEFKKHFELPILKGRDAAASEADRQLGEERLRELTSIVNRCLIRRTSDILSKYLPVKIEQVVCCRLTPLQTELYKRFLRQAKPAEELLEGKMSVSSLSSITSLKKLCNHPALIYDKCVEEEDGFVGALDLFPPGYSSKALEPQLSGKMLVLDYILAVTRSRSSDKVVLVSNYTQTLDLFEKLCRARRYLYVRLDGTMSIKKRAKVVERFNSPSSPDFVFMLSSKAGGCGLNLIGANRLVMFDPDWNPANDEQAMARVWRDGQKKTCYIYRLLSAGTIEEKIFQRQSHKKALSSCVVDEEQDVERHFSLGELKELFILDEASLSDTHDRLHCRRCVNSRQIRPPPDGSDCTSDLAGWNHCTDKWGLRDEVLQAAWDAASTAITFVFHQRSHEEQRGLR
Sequence of Peroxisome proliferator-activated receptor gamma/Nuclear receptor coactivator 2 (P37231 whole entry): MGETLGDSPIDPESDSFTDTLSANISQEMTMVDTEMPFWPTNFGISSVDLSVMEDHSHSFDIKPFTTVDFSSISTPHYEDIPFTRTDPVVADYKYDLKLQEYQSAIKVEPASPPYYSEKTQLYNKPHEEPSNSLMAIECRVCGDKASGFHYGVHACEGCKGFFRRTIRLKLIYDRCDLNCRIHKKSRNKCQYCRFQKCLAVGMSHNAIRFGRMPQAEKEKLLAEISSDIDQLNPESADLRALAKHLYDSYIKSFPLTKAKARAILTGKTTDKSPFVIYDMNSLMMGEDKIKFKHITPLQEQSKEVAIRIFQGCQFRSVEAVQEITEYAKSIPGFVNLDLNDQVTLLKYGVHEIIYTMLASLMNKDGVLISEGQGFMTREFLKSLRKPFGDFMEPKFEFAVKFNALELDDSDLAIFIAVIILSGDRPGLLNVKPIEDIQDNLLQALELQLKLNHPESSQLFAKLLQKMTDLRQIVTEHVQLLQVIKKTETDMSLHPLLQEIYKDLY
Sequence of Peroxisome proliferator-activated receptor gamma/Nuclear receptor coactivator 2 (Q15596 whole entry, further chain): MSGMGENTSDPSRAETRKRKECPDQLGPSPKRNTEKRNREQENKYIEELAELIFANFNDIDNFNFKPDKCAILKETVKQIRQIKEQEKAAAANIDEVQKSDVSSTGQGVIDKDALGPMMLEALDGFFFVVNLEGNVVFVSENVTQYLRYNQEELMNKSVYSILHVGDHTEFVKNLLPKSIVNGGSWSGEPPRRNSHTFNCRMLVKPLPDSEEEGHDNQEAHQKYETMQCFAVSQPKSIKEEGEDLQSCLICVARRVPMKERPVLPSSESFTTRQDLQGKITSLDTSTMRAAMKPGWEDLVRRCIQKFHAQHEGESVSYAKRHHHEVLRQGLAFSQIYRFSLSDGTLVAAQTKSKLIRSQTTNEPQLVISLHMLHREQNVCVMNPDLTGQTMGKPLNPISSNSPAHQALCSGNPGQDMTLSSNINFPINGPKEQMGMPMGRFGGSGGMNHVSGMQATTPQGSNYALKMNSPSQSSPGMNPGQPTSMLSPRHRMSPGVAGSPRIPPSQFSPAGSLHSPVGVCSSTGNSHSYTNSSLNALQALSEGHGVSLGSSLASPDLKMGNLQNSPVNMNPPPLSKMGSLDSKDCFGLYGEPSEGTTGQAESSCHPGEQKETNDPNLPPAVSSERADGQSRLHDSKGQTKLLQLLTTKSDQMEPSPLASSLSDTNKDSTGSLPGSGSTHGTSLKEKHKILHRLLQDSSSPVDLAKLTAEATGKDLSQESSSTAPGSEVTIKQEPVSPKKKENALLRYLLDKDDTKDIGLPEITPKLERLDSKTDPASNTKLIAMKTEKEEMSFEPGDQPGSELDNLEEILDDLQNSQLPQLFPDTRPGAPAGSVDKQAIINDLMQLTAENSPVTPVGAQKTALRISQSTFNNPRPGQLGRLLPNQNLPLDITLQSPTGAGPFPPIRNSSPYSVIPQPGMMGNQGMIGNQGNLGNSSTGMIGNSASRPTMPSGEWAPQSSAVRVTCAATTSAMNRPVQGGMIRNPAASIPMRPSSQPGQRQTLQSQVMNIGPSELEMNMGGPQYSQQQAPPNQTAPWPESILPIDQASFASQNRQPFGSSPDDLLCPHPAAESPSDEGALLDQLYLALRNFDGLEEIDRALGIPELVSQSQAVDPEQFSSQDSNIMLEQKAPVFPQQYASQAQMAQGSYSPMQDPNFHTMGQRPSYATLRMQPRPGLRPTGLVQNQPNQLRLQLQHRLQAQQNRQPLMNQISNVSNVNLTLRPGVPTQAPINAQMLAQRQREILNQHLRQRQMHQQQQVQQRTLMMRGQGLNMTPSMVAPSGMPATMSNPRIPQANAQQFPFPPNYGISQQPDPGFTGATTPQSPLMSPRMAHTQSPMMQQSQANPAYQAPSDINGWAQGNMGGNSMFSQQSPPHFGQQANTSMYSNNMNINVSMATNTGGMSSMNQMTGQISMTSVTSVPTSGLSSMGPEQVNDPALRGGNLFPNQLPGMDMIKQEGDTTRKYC
Sequence of Protein Wnt-3a (P27467 whole entry): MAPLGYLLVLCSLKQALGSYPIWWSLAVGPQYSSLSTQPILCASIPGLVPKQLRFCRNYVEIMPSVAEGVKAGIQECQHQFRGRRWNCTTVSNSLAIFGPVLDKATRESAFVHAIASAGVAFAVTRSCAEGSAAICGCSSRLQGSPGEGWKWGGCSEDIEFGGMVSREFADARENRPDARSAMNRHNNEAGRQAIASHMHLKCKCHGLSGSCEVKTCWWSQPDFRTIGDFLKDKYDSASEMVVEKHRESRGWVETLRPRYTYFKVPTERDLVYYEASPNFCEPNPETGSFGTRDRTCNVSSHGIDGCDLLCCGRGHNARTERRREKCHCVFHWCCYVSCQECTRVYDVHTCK
Sequence of DNA repair protein RAD52 homolog (P43351 whole entry): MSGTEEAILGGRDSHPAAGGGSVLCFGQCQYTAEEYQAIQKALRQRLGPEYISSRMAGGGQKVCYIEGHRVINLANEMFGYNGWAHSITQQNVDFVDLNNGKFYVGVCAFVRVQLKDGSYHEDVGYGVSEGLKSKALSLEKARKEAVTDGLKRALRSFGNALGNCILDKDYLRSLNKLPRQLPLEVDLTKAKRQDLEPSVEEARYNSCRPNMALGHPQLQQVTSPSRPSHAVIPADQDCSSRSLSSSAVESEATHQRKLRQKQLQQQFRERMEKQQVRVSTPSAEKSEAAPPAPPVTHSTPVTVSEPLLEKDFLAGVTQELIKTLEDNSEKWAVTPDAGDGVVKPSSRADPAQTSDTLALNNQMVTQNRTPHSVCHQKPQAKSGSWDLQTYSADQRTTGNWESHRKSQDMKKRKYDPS
Sequence of Steroidogenic factor 1 (Q13285 whole entry): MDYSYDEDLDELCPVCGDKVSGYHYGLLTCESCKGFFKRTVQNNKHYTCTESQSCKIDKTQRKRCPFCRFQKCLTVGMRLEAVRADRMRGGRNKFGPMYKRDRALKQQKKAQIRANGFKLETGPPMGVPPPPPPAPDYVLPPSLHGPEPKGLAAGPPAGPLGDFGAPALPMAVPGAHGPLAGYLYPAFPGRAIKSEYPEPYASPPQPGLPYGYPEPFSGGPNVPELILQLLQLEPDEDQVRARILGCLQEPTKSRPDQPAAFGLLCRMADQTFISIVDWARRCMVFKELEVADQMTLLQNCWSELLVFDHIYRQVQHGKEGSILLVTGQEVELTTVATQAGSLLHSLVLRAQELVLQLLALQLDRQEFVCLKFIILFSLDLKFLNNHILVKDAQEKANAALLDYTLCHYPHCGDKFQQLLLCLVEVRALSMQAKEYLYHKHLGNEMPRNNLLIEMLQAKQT
Sequence of Beta Lactamase (Q932Y6 whole entry): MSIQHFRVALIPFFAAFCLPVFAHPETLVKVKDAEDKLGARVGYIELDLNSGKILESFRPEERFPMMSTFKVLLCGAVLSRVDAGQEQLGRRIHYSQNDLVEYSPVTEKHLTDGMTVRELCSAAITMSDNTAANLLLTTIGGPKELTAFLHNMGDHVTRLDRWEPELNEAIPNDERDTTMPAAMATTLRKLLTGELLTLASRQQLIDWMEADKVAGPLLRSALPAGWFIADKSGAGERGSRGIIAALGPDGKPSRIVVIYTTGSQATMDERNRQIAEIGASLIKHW

## Cc1cccc(NC(=O)COC(=O)CN2C(=O)c3ccccc3C2=O)c1C
Steroidogenic factor 1
  IC50: 5.33 µM (active)
[1]
  IC50: 46.7 µM (inactive)
[2]
  IC50: 35.9 µM (inactive)

## COC(=O)C(C(=O)OC)c1ncccc1[N+](=O)[O-]
HEK293 [3]
  IC50: > 89.1 µM (inactive)
Insulin-degrading enzyme [4]
  EC50: > 54.7 µM (inactive)
HEK293 [5]
  EC50: > 55.9 µM (inactive)
Insulin-degrading enzyme [6]
  EC50: > 54.7 µM (inactive)

## O=C(CSc1ccc(Br)c2cccc(Cl)c12)Nc1ccc(S(=O)(=O)Nc2nccs2)cc1
CHO-K1
  IC50: > 66.2 µM (inactive)
Orexin receptor type 2 [7]
  IC50: 31.5 µM (inactive)
[8]
  IC50: > 49.8 µM (inactive)
[9]
  IC50: > 69.5 µM (inactive)
[10]
  IC50: 4.31 µM (active)
[11]
  EC50: 84.2 µM (not active)
[12]
  IC50: 1.43 µM (active)
[13]
  EC50: 61 µM (not active)
Orexin receptor type 2 [14]
  IC50: > 50 µM (inactive)
[15]
  IC50: 6.53 µM (active)
[16]
  IC50: 25.8 µM (active)
[17]
  IC50: > 69.5 µM (inactive)
[18]
  EC50: 28.6 µM (not active)

## O=C1C2C(c3ccccc3)C=CC(c3ccccc3)C2C(=O)N1c1ccncc1 (stereo not given)
Beta-lactamase [19]
  IC50: > 59.6 µM (inactive)
Beta Lactamase
  IC50: 62.4 µM (inactive)
Beta-lactamase [20]
  IC50: 14.6 µM (inactive)

## COC(=O)Nc1cccc(OC(=O)Nc2cccc(C)c2)c1
[21]
  AC50: 39.8 µM (inconclusive)

## CC(=O)OC[C@H]1O[C@@H](Sc2cccc3cccnc23)[C@H](OC(C)=O)[C@@H](OC(C)=O)[C@H]1OC(C)=O
[22]
  AC50: 91.4 µM (active)

## CC(NC(C)c1ccccc1Cl)C(=O)Nc1cccc(S(=O)(=O)N2CCCCC2)c1 (stereo not given)
CHO-K1
  IC50: > 66.2 µM (inactive)
Orexin receptor type 2 [7]
  IC50: 18.9 µM (inactive)
[8]
  IC50: 48.8 µM (inactive)
[10]
  IC50: 3.25 µM (active)
[12]
  IC50: 0.238 µM (active)
Orexin receptor type 2 [14]
  IC50: > 50 µM (inactive)

## COc1ccc(Nc2c3ccccc3nc3ccccc23)cc1
[23]
  AC50: 7.04 µM (active)
[24]
  AC50: 1.9 µM (active)
[25]
  AC50: 0.016 µM (active)

## CCCCNc1c(-c2ccc(OC)c(Sc3ccc(OC)cc3)c2)nc2ccccn12
[26]
  AC50: 4.38 µM (active)
Protein Wnt-3a
  IC50: 11.5 µM (active)
[27]
  AC50: 0.821 µM (active)
[28]
  EC50: 32.2 µM (inactive)
[29]
  AC50: 6 µM (active)
[30]
  AC50: 48.4 µM (active)

## COC1C(OC(=O)/C=C/C=C/C=C/C=C/C(=O)O)CCC2(CO2)C1C1(C)OC1CC=C(C)C.c1ccc(Nc2ccccc2)cc1 (stereo not given)
[31]
  IC50: 94.5 µM (inactive)

## O=C(CSc1nc(N2CCOCC2)nc(N2CCOCC2)n1)Nc1ccc([N+](=O)[O-])cc1
HEK293 [3]
  IC50: > 89.2 µM (inactive)
Insulin-degrading enzyme [4]
  EC50: > 54.7 µM (inactive)
HEK293 [5]
  EC50: 21.2 µM (inactive)
Insulin-degrading enzyme [6]
  EC50: > 54.7 µM (inactive)
